Earlier results as cited in US20170209579A1, “NON-INVASIVE RADIOFREQUENCY FIELD TREATMENT FOR CANCER THERAPY” (Baylor College of Medicine, priority 2014, published 2017).

Tested on: tumor
Settings: Monsky et al.; cited from earlier work

## COc1cccc2c1C(=O)c1c(O)c3c(c(O)c1C2=O)C[C@@](O)(C(=O)CO)C[C@@H]3O[C@H]1C[C@H](N)[C@H](O)[C@H](C)O1 [free doxorubicin]
  accumulation and retention in the tumor after conventional RFA: not
